Counter-ions that a name gives are not always drawn.
Columns and labels:
Blood-free fatty acids = assay: Experiment I: blood free fatty acid after oral administration to fasted rats; type: in vivo, rat; details: 1 mmol/kg, mean
Method: (§1) Test compounds are administered orally to groups of 5 rats (body weight: about 290 g) which fasted overnight. Blood samples were collected from the tail vein at intervals. Blood free fatty acid, serum-triglyceride and serum-cholesterol were determined, respectively.

Serum triglyceride = assay: Experiment I: serum-triglyceride after oral administration to fasted rats; type: in vivo, rat; details: 1 mmol/kg, rats about 290 g, mean
Method: as §1

Serum-cholesterol = assay: Experiment I: serum-cholesterol after oral administration to fasted rats; type: in vivo, rat; details: 1 mmol/kg, mean
Method: as §1

Serum-triglyceride = assay: Experiment II: serum-triglyceride after oral administration to fasted rats; type: in vivo, rat; details: 1 mmol/kg, rats about 170 g, mean ± standard error
Method: Test compounds were administered orally to groups of 5 rats (body weight: about 170 g) which fasted overnight. Blood samples were collected from the tail vain at intervals, and serum-triglyceride was determined.

[1] = Experiment III: acute toxicity, oral, ddY male mice (Van der Waerden's Method); details: mouse, in vivo, ddY-strain male mice
Method: (§2) Test compounds were administered orally to ddY male mice or SD-strain male rats. Seventy-two hours after the administration, 50% lethal dose of the test compounds were estimated in accordance with Van der Waerden's Method.

[2] = Experiment III: acute toxicity, oral, SD-strain male rats (Van der Waerden's Method); details: rat, in vivo
Method: as §2

[3] = tested on: cholesterol and triglyceride levels in plasma; details: literature; cited from earlier work
[4] = use as hypolipidemic agent; known; cited from earlier work
[5] = 0 hrs after oral administration
[6] = 2 hrs after oral administration
[7] = 6 hrs after oral administration
[8] = 10 hrs after oral administration
[9] = 12 hrs after oral administration

Row | Structure (SMILES) | Blood-free fatty acids (Blood-free fatty acids; [5]) | Blood-free fatty acids (Blood-free fatty acids; [6]) | Blood-free fatty acids (Blood-free fatty acids; [7]) | Blood-free fatty acids (Blood-free fatty acids; [8]) | Serum triglyceride (Serum triglyceride; [7]) | Serum triglyceride (Serum triglyceride; [8]) | Serum-cholesterol (Serum-cholesterol; [7]) | Serum-cholesterol (Serum-cholesterol; [8]) | Serum-triglyceride (Serum-triglyceride; [7]) | Serum-triglyceride (Serum-triglyceride; [9]) | LD50 at 72 h [1] | LD50 at 72 h [2] | cholesterol and triglyceride levels in plasma [3] | side effects [4]
1 | CCOC(=O)CC(C[N+](C)(C)C)OC(=O)c1cccnc1 (stereo not shown) [A, Nicotinoyl carnitine ethyl ester nitrate . HNO3] | 52 μ moles/dl | 27 μ moles/dl | 29 μ moles/dl | 65 μ moles/dl | 12 mg/dL | 16 mg/dL | 55 mg/dL | 50 mg/dL |  |  |  |  |  | 
2 | CCOC(=O)CC(C[N+](C)(C)C)OC(=O)c1cccnc1 (stereo not shown) [B, Nicotinoyl carnitine ethyl ester chloride. H2 O] |  |  |  |  |  |  |  |  | 13 ± 5 mg/dL | 13 ± 4 mg/dL | 5900 mg/kg | 6900 mg/kg |  | 
3 | C[N+](C)(C)CC(CC(=O)OCc1ccccc1)OC(=O)c1cccnc1 (stereo not shown) [C, Nicotinoyl carnitine benzyl ester chloride] |  |  |  |  |  |  |  |  | 10 ± 1 mg/dL | 23 ± 3 mg/dL |  |  |  | 
4 | C[N+](C)(C)CC(CC(N)=O)OC(=O)c1cccnc1 (stereo not shown) [D, Nicotinoyl carnitine amide chloride . HCl] |  |  |  |  |  |  |  |  |  |  | > 7200 mg/kg | > 7000 mg/kg |  | 
5 | O=C(O)c1cccnc1 [Nicotinic acid, nicotinic acid, reference compound] | 38 μ moles/dl | 22 μ moles/dl | 60 μ moles/dl | 66 μ moles/dl | 22 mg/dL | 27 mg/dL | 74 mg/dL | 70 mg/dL | 28 ± 7 mg/dL | 34 ± 5 mg/dL |  |  | can be decreased | undesirable side effects such as facial skin flush and itching

Source: patent publication US4032641A, “Nicotinoyl carnitine derivatives” (Tanabe Seiyaku Co., Ltd., priority 1976, dated 1977)
